# Assay results: ChEMBL document CHEMBL1909046, “DrugMatrix in vitro pharmacology data”
# How the values were obtained:
# [1] = biological target: Beta-2 adrenergic receptor (Homo sapiens, UniProt P07550); assay: DRUGMATRIX: Adrenergic beta2 radioligand binding (ligand: [3H] CGP-12177); format: cell membranes, Membrane; details: cho; Not Active = under 50% inhibition at 10 µM
# [2] = biological target: Sodium-dependent dopamine transporter (Homo sapiens, UniProt Q01959); assay: DRUGMATRIX: Dopamine Transporter radioligand binding (ligand: [125I] RTI-55); format: cell membranes, CHO-K1, Membrane; details: cho-k1; Not Active = under 50% inhibition at 10 µM
# Insulin receptor = Insulin receptor (Rattus norvegicus, UniProt P15127); format: cell membranes, Wistar, Liver, Membrane; also: in other assays of this panel Not Active means under 50% inhibition at 10 µM
# [3] = biological target: Matrix metalloproteinase-9 (Homo sapiens, UniProt P14780); assay: biochemical; format: cell-based;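 also: inhibition of isolated MMP-9 enzyme activity toward a synthetic peptide substrate, from the DrugMatrix protease screening panel; in other assays of this panel Not Active means under 50% inhibition at 10 µM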
# [4] = biological target: Protein kinase C alpha type (Homo sapiens, UniProt P17252); format: cell-based; details: sf9;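 also: inhibition of PKCalpha kinase activity measured in an enzyme assay with histone as the phosphorylation substrate; in other assays of this panel Not Active means under 50% inhibition at 10 µM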
# [5] = biological target: Epidermal growth factor receptor (Homo sapiens, UniProt P00533); assay: DRUGMATRIX: Protein Tyrosine Kinase, EGF Receptor enzyme inhibition (substrate: Poly(Glu:Tyr)); format: cell-based, Insect cells; details: Not Active = under 50% inhibition at 10 µM
# Chain of Matrix metalloproteinase-9 (P14780 whole entry): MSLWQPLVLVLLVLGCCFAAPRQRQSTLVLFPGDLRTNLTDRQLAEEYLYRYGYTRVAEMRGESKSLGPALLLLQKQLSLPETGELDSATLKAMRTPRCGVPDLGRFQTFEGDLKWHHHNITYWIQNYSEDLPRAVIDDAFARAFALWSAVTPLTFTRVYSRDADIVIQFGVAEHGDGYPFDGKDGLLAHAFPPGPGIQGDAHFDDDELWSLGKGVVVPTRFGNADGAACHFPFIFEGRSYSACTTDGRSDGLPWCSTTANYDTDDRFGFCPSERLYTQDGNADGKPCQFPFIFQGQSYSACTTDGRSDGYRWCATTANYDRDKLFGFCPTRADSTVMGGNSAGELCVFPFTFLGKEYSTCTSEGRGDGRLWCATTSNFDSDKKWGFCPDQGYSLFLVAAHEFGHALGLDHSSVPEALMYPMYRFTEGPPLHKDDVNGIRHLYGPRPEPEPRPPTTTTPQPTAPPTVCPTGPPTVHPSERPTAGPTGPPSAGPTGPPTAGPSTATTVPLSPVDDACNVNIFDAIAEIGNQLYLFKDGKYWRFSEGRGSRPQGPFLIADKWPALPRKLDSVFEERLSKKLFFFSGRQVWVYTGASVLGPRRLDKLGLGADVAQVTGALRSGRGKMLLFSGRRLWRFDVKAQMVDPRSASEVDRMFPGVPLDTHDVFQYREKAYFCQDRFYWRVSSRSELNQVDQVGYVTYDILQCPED
# Chain of Insulin receptor (P15127 27-759 limits assumed): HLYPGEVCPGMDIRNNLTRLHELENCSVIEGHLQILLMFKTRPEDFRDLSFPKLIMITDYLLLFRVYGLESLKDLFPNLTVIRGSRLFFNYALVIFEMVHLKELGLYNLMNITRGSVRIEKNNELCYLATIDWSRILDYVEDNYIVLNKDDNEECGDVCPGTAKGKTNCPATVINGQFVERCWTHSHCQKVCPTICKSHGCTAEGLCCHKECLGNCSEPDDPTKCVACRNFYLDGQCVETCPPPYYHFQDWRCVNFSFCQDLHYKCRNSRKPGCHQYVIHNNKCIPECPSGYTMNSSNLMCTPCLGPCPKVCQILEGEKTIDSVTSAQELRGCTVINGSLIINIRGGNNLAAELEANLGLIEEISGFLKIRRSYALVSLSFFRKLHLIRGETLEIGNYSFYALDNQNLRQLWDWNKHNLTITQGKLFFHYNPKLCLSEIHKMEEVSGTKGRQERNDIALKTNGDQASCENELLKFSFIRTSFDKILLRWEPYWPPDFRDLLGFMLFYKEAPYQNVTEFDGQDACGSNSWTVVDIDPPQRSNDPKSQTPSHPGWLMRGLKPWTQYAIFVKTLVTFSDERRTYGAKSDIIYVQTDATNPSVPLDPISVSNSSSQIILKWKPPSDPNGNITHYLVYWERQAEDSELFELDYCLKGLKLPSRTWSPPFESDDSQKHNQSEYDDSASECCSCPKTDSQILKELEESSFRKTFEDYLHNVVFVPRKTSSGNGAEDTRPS
# Chain of Insulin receptor (P15127 764-1383 limits assumed): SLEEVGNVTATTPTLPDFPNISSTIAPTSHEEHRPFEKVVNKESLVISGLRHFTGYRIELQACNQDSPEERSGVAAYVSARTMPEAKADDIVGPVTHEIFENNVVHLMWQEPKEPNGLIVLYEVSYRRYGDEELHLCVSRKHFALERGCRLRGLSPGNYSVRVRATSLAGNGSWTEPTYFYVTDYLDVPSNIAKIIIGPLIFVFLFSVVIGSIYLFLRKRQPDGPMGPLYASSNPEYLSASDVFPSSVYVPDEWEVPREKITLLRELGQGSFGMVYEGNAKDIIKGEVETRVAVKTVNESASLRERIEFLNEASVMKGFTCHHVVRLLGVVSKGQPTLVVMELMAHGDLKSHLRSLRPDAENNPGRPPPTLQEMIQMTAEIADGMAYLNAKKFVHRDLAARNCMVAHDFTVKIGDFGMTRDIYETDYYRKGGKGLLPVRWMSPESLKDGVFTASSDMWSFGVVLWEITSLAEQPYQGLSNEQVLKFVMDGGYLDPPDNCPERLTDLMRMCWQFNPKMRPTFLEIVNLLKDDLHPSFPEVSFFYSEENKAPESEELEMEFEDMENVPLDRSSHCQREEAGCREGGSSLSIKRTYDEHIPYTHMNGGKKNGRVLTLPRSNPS
# Chain of Sodium-dependent dopamine transporter (Q01959 whole entry): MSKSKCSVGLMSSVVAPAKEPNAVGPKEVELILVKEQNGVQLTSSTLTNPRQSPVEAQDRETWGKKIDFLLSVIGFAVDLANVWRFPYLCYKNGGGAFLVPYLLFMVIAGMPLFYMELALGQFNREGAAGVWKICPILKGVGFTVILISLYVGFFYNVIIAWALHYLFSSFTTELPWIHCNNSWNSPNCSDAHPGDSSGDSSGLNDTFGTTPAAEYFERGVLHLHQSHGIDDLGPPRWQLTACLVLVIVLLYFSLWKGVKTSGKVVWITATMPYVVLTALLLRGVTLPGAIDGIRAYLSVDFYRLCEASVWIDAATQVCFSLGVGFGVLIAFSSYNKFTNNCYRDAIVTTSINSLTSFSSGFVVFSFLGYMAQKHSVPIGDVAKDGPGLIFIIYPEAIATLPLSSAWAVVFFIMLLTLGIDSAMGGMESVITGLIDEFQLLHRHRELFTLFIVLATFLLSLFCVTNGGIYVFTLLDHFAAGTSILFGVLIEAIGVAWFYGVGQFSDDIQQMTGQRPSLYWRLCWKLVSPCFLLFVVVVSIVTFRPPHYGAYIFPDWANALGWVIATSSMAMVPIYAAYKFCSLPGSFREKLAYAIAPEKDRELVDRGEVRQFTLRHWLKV
Compound,IC50 [1],IC50 [2],IC50 (Insulin receptor),IC50 [3],IC50 [4],IC50 ([5]; insect cells),Ki [1],Ki [2],Ki (Insulin receptor),Ki [3],Ki [4],Ki ([5]; insect cells),IC50 ([5]; read-out: IC50),"IC50 ([5]; insect cells, read-out: IC50)"
CC1(C)O[C@@H]2C[C@H]3[C@@H]4CCC5=CC(=O)CC[C@]5(C)[C@@]4(F)[C@@H](O)C[C@]3(C)[C@]2(C(=O)CCl)O1 [HALCINONIDE],Not Active,Not Active,Not Active,Not Active,Not Active,Not Active,–,–,–,–,–,–,–,–
CC1CC(OC(=O)C(O)c2ccccc2)CC(C)(C)C1 (stereo not given) [CYCLANDELATE],Not Active,Not Active,Not Active,Not Active,Not Active,Not Active,–,–,–,–,–,–,–,–
LEAD (II) ACETATE,Not Active,Not Active,Not Active,Not Active,Not Active,Not Active,Not Active,Not Active,Not Active,Not Active,Not Active,Not Active,–,–
Sc1ncnc2nc[nH]c12 [MERCAPTOPURINE ANHYDROUS],Not Active,Not Active,Not Active,Not Active,Not Active,Not Active,–,–,–,–,–,–,–,–
O=c1[nH]c(=O)n([C@H]2C[C@H](O)[C@@H](CO)O2)cc1I [IDOXURIDINE],Not Active,Not Active,Not Active,Not Active,Not Active,Not Active,–,–,–,–,–,–,–,–
CC1(C)S[C@@H]2[C@H](NC(=O)Cc3ccccc3)C(=O)N2[C@H]1C(=O)O [PENICILLIN G],Not Active,Not Active,Not Active,Not Active,Not Active,Not Active,–,–,–,–,–,–,–,–
CC1=C2C(=CO[C@H](C)[C@H]2C)C(O)=C(C(=O)O)C1=O [CITRININ],Not Active,Not Active,Not Active,Not Active,Not Active,Not Active,–,–,–,–,–,–,–,–
Cc1c(C)c2c(c(C)c1O)CC[C@@](C)(CCC[C@H](C)CCC[C@H](C)CCCC(C)C)O2 [ALPHA-TOCOPHEROL],Not Active,Not Active,Not Active,Not Active,Not Active,Not Active,–,–,–,–,–,–,–,–
O=C(O)CCCc1ccc(N(CCCl)CCCl)cc1 [CHLORAMBUCIL],Not Active,Not Active,Not Active,Not Active,Not Active,Not Active,–,–,–,–,–,–,–,–
CC[C@@]1(O)C[C@H](O[C@H]2C[C@H](N(C)C)[C@H](O[C@H]3C[C@H](O)[C@H](O[C@H]4CCC(=O)[C@H](C)O4)[C@H](C)O3)[C@H](C)O2)c2c(cc3c(c2O)C(=O)c2c(O)cccc2C3=O)[C@H]1C(=O)OC [ACLARUBICIN],Not Active,Not Active,Not Active,Not Active,Not Active,Not Active,–,–,–,–,–,–,–,–
CC(=O)O[C@@]12CO[C@@H]1C[C@H](O)[C@@]1(C)C(=O)[C@H](O)C3=C(C)[C@@H](OC(=O)[C@H](O)[C@@H](NC(=O)OC(C)(C)C)c4ccccc4)C[C@@](O)([C@@H](OC(=O)c4ccccc4)[C@H]21)C3(C)C.O.O.O [DOCETAXEL],Not Active,Not Active,Not Active,Not Active,Not Active,Not Active,–,–,–,–,–,–,–,–
CC(C)CN(C[C@@H](O)[C@H](Cc1ccccc1)NC(=O)O[C@H]1CCOC1)S(=O)(=O)c1ccc(N)cc1,Not Active,Not Active,Not Active,Not Active,Not Active,Not Active,–,–,–,–,–,–,–,–
C[C@](N)(Cc1ccc(O)c(O)c1)C(=O)O [METHYLDOPA],Not Active,Not Active,Not Active,Not Active,Not Active,–,–,–,–,–,–,–,5230 nM,–
Nc1nc(N)nc(-c2cc(Cl)ccc2Cl)n1.O=C(O)/C=C\C(=O)O [IRSOGLADINE MALEATE],Not Active,Not Active,Not Active,Not Active,Not Active,Not Active,–,–,–,–,–,–,–,–
Nc1ncn([C@@H]2O[C@H](CO)[C@@H](O)[C@H]2O)c(=O)n1 [AZACITIDINE],Not Active,Not Active,Not Active,Not Active,Not Active,Not Active,–,–,–,–,–,–,–,–
LIPOPOLYSACCHARIDE E. COLI O55:B5,Not Active,Not Active,Not Active,Not Active,Not Active,–,Not Active,Not Active,Not Active,Not Active,Not Active,–,–,188 nM
CCCCN1CCCC[C@H]1C(=O)Nc1c(C)cccc1C [LEVOBUPIVACAINE],Not Active,Not Active,Not Active,Not Active,Not Active,Not Active,–,–,–,–,–,–,–,–
CC(C)C(=O)Nc1ccc([N+](=O)[O-])c(C(F)(F)F)c1 [FLUTAMIDE],Not Active,Not Active,Not Active,Not Active,Not Active,Not Active,–,–,–,–,–,–,–,–
CC(C)[C@H]1C(=O)N2CCC[C@H]2[C@]2(O)O[C@](NC(=O)[C@@H]3C=C4c5cccc6[nH]cc(c56)C[C@H]4N(C)C3)(C(C)C)C(=O)N12 [ERGOCORNINE],Not Active,Not Active,Not Active,Not Active,Not Active,Not Active,–,–,–,–,–,–,–,–
